Laboratory results published in patent US12370161B2, “Composition for treating atopy or pruritus comprising N-acetyl or N-acyl amino acid” (STEMDR INC., priority 2017, dated 2025).

Test system: atopic dermatitis-induced Balb/c mouse
Assay: SCORAD clinical skin score, DNFB-induced atopic dermatitis in Balb/c mouse
Format: in vivo
Parameters: key to Mouse 1 Sum / Mean (of Sum, SCORAD) / Mouse 2 Sum / Mouse 3 Sum: sum of symptom grades, each 0 (none) to 3 (severe)
Conditions: DNFB Balb/c; for Mouse 1 Erythema: 0.1% in PBS, 200 μL on back skin daily day 22-28, grade 0-3 (0 no symptom, 1 mild, 2 moderate, 3 severe); for Mouse 1 Abrasion / Mouse 1 Dryness / Mouse 1 Edema / Mouse 1 Eschar / Mouse 1 Lichenification / Mouse 1 Sum / Mouse 2 Abrasion / Mouse 2 Dryness / Mouse 2 Edema / Mouse 2 Erythema / Mouse 2 Eschar / Mouse 2 Lichenification / Mouse 2 Sum / Mouse 3 Abrasion / Mouse 3 Dryness / Mouse 3 Edema / Mouse 3 Erythema / Mouse 3 Eschar / Mouse 3 Lichenification / Mouse 3 Sum / Mean (of Sum, SCORAD): 0.1% topical day 22-28; for Mouse 1 Abrasion / Mouse 1 Dryness / Mouse 1 Edema / Mouse 1 Eschar / Mouse 1 Lichenification / Mouse 2 Abrasion / Mouse 2 Dryness / Mouse 2 Edema / Mouse 2 Erythema / Mouse 2 Eschar / Mouse 2 Lichenification / Mouse 3 Abrasion / Mouse 3 Dryness / Mouse 3 Edema / Mouse 3 Erythema / Mouse 3 Eschar / Mouse 3 Lichenification: grade 0-3; for Mouse 1 Sum / Mouse 2 Sum / Mouse 3 Sum: overall dermatitis score, sum of individual scores; for Mean (of Sum, SCORAD): mean of 3 mice
Description: In order to induce atopy-like dermatitis in Balb/c mice, DNFB sensitization was induced by applying 100 μL of 0.35% 2,4-dinitrofluorobenzene (DNFB) (Sigma, USA) in acetone/olive oil (3:1) on the shaved back skin of the mice. Then, dermatitis was induced by applying 100 μL of 0.25% DNFB on days 6, 9, 12, 15, 18 21, 24 and 27 on the shaved back skin. Control mice were treated with a vehicle of the same volume (FIG. 1A).
After dissolving an N-acetyl or N-acylamino acid in phosphate-buffered saline to 0.1%, 200 μL of the solution was applied on the back skin of the mice every day, from day 22 until day 28 for the Balb/c atopic dermatitis model, and from day 15 until day 21 for the Nc/Nga atopic dermatitis model. When the N-acetyl or N-acylamino acid was treated together with DNFB, they were treated with 12-hour intervals in order to avoid direct reaction between the DNFB and the N-acetyl or N-acylamino acid. A non-treated group and a 2,4-dinitrofluorobenzene (DNFB) group were treated with phosphate-buffered saline of the same volume (FIGS. 1A-1B). As the N-acetylamino acid, products purchased from Sigma-Aldrich (USA), MP scientific (USA), TCI (Tokyo Chemical Industry, Japan), Santacruz (USA), etc. were used without purification.
The degree of skin soothing and the severity of atopic dermatitis were evaluated macroscopically according to the previously established SCORAD (SCORing Atopic Dermatitis) method (Oranje et al., 2007). The degree of symptoms such as edema, erythema, eschar, dryness, abrasion, lichenification, etc. was graded from 0 to 3 (0, no symptom; 1, mild; 2, moderate; 3, severe). The overall dermatitis score was determined from the sum of all individual scores (Table 1). The assessment was performed by an investigator who was blind to the grouping of the mice.

SMILES | Mouse 1 Erythema | Mouse 1 Abrasion | Mouse 1 Dryness | Mouse 1 Edema | Mouse 1 Eschar | Mouse 1 Lichenification | Mouse 1 Sum | Mouse 2 Abrasion | Mouse 2 Dryness | Mouse 2 Edema | Mouse 2 Erythema | Mouse 2 Eschar | Mouse 2 Lichenification | Mouse 2 Sum | Mouse 3 Abrasion | Mouse 3 Dryness | Mouse 3 Edema | Mouse 3 Erythema | Mouse 3 Eschar | Mouse 3 Lichenification | further results
CC(=O)N[C@@H](CCCCN)C(=O)O [N-acetyl-L-Lysine] | 3 | 2 | 3 | 2 | 2 | 1 | 13 | 2 | 2 | 3 | 3 | 2 | 3 | 15 | 2 | 3 | 2 | 3 | 2 | 2 | Mouse 3 Sum: 14; Mean (of Sum, SCORAD): 14
CC(=O)N[C@@H](CC(N)=O)C(=O)O [N-acetyl-L-asparagine] | 3 | 3 | 3 | 2 | 2 | 2 | 15 | 3 | 2 | 2 | 2 | 3 | 3 | 14 | 2 | 3 | 3 | 3 | 3 | 2 | Mouse 3 Sum: 16; Mean (of Sum, SCORAD): 15
CC(=O)N[C@@H](CC(=O)O)C(=O)O [N-acetyl-L-aspartic acid] | 3 | 2 | 2 | 2 | 2 | 2 | 13 | 2 | 3 | 2 | 3 | 2 | 2 | 14 | 2 | 2 | 2 | 3 | 2 | 1 | Mouse 3 Sum: 12; Mean (of Sum, SCORAD): 13
CC(=O)N[C@@H](CCC(=O)O)C(=O)O [N-acetyl-L-glutamic acid] | 3 | 2 | 2 | 2 | 2 | 3 | 14 | 2 | 3 | 2 | 2 | 2 | 2 | 13 | 2 | 3 | 2 | 1 | 2 | 2 | Mouse 3 Sum: 12; Mean (of Sum, SCORAD): 13
CC(=O)N[C@@H](CCC(N)=O)C(=O)O [N-acetyl-L-glutamine] | 2 | 2 | 2 | 2 | 2 | 3 | 13 | 2 | 2 | 2 | 2 | 2 | 2 | 12 | 2 | 2 | 2 | 2 | 2 | 1 | Mouse 3 Sum: 11; Mean (of Sum, SCORAD): 12
CC(=O)NCC(=O)O [N-acetyl-L-glycine] | 3 | 2 | 2 | 2 | 2 | 3 | 14 | 2 | 3 | 2 | 3 | 2 | 3 | 15 | 2 | 3 | 2 | 3 | 2 | 3 | Mouse 3 Sum: 15; Mean (of Sum, SCORAD): 14.67
CC(=O)N[C@@H](Cc1c[nH]cn1)C(=O)O [N-acetyl-L-histidine] | 3 | 2 | 3 | 2 | 2 | 3 | 15 | 2 | 3 | 2 | 3 | 2 | 3 | 15 | 2 | 3 | 2 | 3 | 2 | 2 | Mouse 3 Sum: 14; Mean (of Sum, SCORAD): 14.67
CC[C@H](C)[C@H](NC(C)=O)C(=O)O [N-acetyl-L-isoleucine] | 3 | 1 | 3 | 2 | 3 | 3 | 15 | 2 | 3 | 2 | 2 | 2 | 3 | 14 | 1 | 3 | 2 | 3 | 2 | 3 | Mouse 3 Sum: 14; Mean (of Sum, SCORAD): 14.33
CC(=O)N[C@@H](CC(C)C)C(=O)O [N-acetyl-L-leucine] | 3 | 2 | 3 | 2 | 2 | 2 | 14 | 2 | 3 | 2 | 3 | 2 | 3 | 15 | 2 | 3 | 2 | 3 | 2 | 1 | Mouse 3 Sum: 13; Mean (of Sum, SCORAD): 14
CSCC[C@H](NC(C)=O)C(=O)O [N-acetyl-L-methionine] | 2 | 2 | 3 | 2 | 2 | 3 | 14 | 2 | 3 | 2 | 3 | 3 | 3 | 16 | 2 | 3 | 2 | 2 | 2 | 3 | Mouse 3 Sum: 14; Mean (of Sum, SCORAD): 14.67
CC(=O)N[C@@H](Cc1ccccc1)C(=O)O [N-acetyl-L-phenylalanme] | 3 | 2 | 3 | 2 | 1 | 2 | 13 | 2 | 3 | 2 | 3 | 2 | 3 | 15 | 1 | 3 | 2 | 3 | 2 | 3 | Mouse 3 Sum: 14; Mean (of Sum, SCORAD): 14
